Consider 2 molecules from patent US20140256690A1, “CONTRACEPTIVE METHOD” (AGILE THERAPEUTICS, INC., priority 2013, published 2014).

The nature of the data set: Saturation solubilities of enhancers in PSAs. The format is physicochemical.
Setting [1] is: in Duro-Tak 87-4098 (polyacrylate PSA).

`C[S+](C)[O-]` [DMSO, dimethyl sulfoxide]: the “Saturation Solubilities” value under setting [1] was 8 mg/g and the “Saturation Solubilities” value (in PIB PSA) is 0.01 mg/g.
The corresponding values for `CCCCCCCCCCCCOC(=O)C(C)O` (stereo not shown) [Lauryl Lactate, lauryl lactate] are 1000 mg/g and 785 mg/g.
